# Patent publication US8017575B2 (priority 2004, dated 2011)
# Several values for one entry are separate records, joined by “and”; a condition that tells them apart may be missing. Equal values may be shown once. Read-outs that look alike come from different tables or passages of the source.
# Columns and labels:
# [1] = Arterial blood glucose (glycemia) during drug infusion and hemorrhage; format: in vivo, rat
# Description: (§1) After surgical completion, the animal was allowed to stabilize for 30 minutes, after which arterial blood samples (25 μl) were taken from the shunt and analyzed for blood glucose concentration using a glucose oxidase analyzer (Yellow Springs Instruments, Yellow Springs, Ohio). Samples were analyzed at five-minute intervals until 3 successive stable measurements were obtained. The mean of these 3 samples was used as the basal glucose level. […] At 45 seconds, a glucose infusion was initiated and adjusted to maintain euglycemia as determined by the basal glucose level. An arterial sample was taken from the arterial-venous shunt every 2 minutes during the RIST, and the glucose infusion was increased or decreased accordingly. […] The amount of glucose infused over the RIST (mg glucose/kg of body weight) is known as the RIST index.
# (§2) Following the standard surgical procedure described above, a control RIST was performed. The anesthetized animal was hemorrhaged to an arterial blood pressure of 50 mmHg and held at this pressure for a 10 minute interval, by withdrawing additional blood as needed. Blood was not returned. The animal was hemorrhaged from the arterial side of the shunt, using a 23-gauge needle attached to a syringe, at a rate of 0.5 ml/min. Arterial blood pressure was measured from the vascular shunt during brief occlusion of the venous side of the shunt. Following the hemorrhage, arterial blood glucose levels were measured until they became stable for at least 15 minutes and another RIST was performed.
# Effect of Phentolamine on HDIR following Hemorrhage: Following a standard surgical preparation, a laparotomy and portal puncture was performed. After a 30 minute stabilization period, a control RIST was performed. Following the RIST, phentolamine (400 μg/kg/min-IPV, 10 minute infusion at a rate of 0.025 ml/min), or cyclosomatostatin (20 μg/kg/min-IPV, continuous infusion at a rate of 0.025 ml/min) was administered. The rat was restabilized and then hemorrhaged to an arterial blood pressure of 50 mmHg and held at this pressure for a ten-minute interval. […]
# beta receptors = assay: Heart rate test of beta blockade (propranolol vs isoproterenol); format: in vivo, rat
# Description: Identification of Blocking Dose of […]: A standard surgical preparation, laparotomy and portal vein puncture were performed on an anesthetized rat. […] (Heart rate was measured using a Grass AC/DC Strain gauge amplifier and National Instrument data acquisition software.) Following stabilization, isoproterenol (0.5 μg/kg/min-IV) was administered at a rate of 0.1 ml/min for 5 minutes. Heart rate and glucose levels were analyzed in the last 30 seconds of isoproterenol administration and 15 minutes subsequent to discontinuation of isoproterenol infusion.
# insulin sensitivity [2] = assay: Rapid Insulin Sensitivity Test (RIST) before/after hemorrhage to 50 mmHg (hemorrhage-induced HDIR); format: in vivo, rat
# Description: (§3) Surgical Procedures: Male Sprague Dawley rats (Charles River, St. Constant, Quebec, Canada) were housed in climate-controlled conditions for at least 6 days prior to surgical preparation. The animals were fasted for 8 hours, and then allowed ad lib access to standard rat chow for 2 hours prior to surgical preparation. […] The animals were weighed and anesthetized by an intraperitoneal injection of pentobarbital sodium (65 mg/ml, Somnotol, Biomeda-MTC Animal Health Inc., Cambridge Canada). Temperature was monitored by a rectal thermometer and kept constant at 37.5±0.5° C. by a heated surgical table and an overhead lamp. […] Animals were heparinized (100 IU/kg). Blood samples were taken by puncturing the arterial side of the arterial-venous shunt. The infusion of pharmacological agents was done by puncturing and inserting an infusion line into the silicon sleeve of the venous side of the shunt. Arterial pressure was measured by clamping the silicon sleeve on the venous side of the shunt, and measuring pressure from a side branch. A tracheotomy was performed (Micro-Renathane Tubing (095), Braintree Scientific Inc.) The left jugular vein was then cannulated with PE60 tubing in order to allow for continuous supplemental anesthetic (sodium pentobarbital, 2.16 mg/ml saline) infusion at a rate of 0.5 ml/hr/100 g of body weight. An infusion line was inserted into a silicon sleeve on the jugular supplement line for glucose administration and was controlled by a variable infusion pump (Genie, Kent Scientific Corporation, Litchfield, Mass.). The cannulation of the femoral artery and vein, the tracheotomy and the jugular vein cannulation is the standard surgical preparation.
# as §1, §2
# A control RIST was performed after a 30 minute stabilization period. […] A post hemorrhage RIST was then done as soon as a stable glycemic baseline had been established.
# Effect of Phentolamine on HDIR following Hemorrhage: Following a standard surgical preparation, a laparotomy and portal puncture was performed. After a 30 minute stabilization period, a control RIST was performed. Following the RIST, phentolamine (400 μg/kg/min-IPV, 10 minute infusion at a rate of 0.025 ml/min), or cyclosomatostatin (20 μg/kg/min-IPV, continuous infusion at a rate of 0.025 ml/min) was administered. The rat was restabilized and then hemorrhaged to an arterial blood pressure of 50 mmHg and held at this pressure for a ten-minute interval.
# [3] = for Volume of Distribution, Percent Change (reduction): SMA ligation vs control
# Description: Following the hemorrhage, another RIST was performed. […] The samples were centrifuged and the plasma was frozen immediately on dry ice, and stored at −80° C.
# A snare was inserted around the artery so that it could be occluded. The animal was allowed to rest for a 30 minute interval.
# insulin sensitivity [4] = assay: RIST during somatostatin infusion (somatostatin-induced HDIR); format: in vivo, rat
# Description: as §3, with “The cannulation of the femoral artery and vein, the tracheotomy and the jugular vein cannulation is the standard surgical preparation.” left out
# After surgical completion, the animal was allowed to stabilize for 30 minutes, after which arterial blood samples (25 μl) were taken from the shunt and analyzed for blood glucose concentration using a glucose oxidase analyzer (Yellow Springs Instruments, Yellow Springs, Ohio). Samples were analyzed at five-minute intervals until 3 successive stable measurements were obtained. […] At 45 seconds, a glucose infusion was initiated and adjusted to maintain euglycemia as determined by the basal glucose level. […]
# [5] = SMA ligation series, SMA ligated
# [6] = hemorrhage series, control, insulin 50 mU/kg 30 second bolus
compound,measurement,setting,value
CC(C)NCC(O)COc1cccc2ccccc12 (stereo not shown) [propranolol],increase in glycemia following hemorrhage,[1]; propranolol 1.5 mg/kg-IPV prior to hemorrhage,17.4±3.3% and 17.4%
same,block of the acceleration in heart rate caused by isoproterenol,beta receptors; propranolol 1.5 mg/kg,completely block
same,reduction in basal heart rate,beta receptors; propranolol 1.5 mg/kg-IPV,70.6±1.3 beats/min
same,prevention of HDIR subsequent to hemorrhage,insulin sensitivity [2]; Example 8: propranolol 1.5 mg/kg-IPV,unable to prevent HDIR
insulin: Human insulin (Humulin R) purchased from Eli Lilly,Clearance,[3]; [5],0.667 ± 0.0167 mL/min/kg
same,Volume of Distribution,[3]; [5],0.03 ± 0.003 L/kg
same,"Volume of Distribution, Percent Change (reduction)",[3],69.4±2.2%
same,"Volume of Distribution, Percent Change (reduction)",[3]; listed as Insulin,69.39%
same,insulin concentration at the 1 minute mark of the RIST,"[3]; after hemorrhage, n=4",27.5 ± 3.8 µg/L
same,time for insulin to decrease to baseline,"[3]; both control and hemorrhage RISTs, 30 second bolus 50 mU/kg",5 min
same,Clearance,[3]; [6],1.03 ± 0.15 mL/min/kg
same,Volume of Distribution,[3]; [6],0.056 ± 0.012 L/kg
cyclosomatostatin,prevention of somatostatin-induced HDIR,"insulin sensitivity [4]; Example 6: cyclosomatostatin 20 μg/kg/min-IPV continuous infusion, n=3",significantly prevented the occurrence of HDIR
same,cyclosomatostatin and somatostatin RIST index,"insulin sensitivity [4]; Example 6: cyclosomatostatin 20 μg/kg/min-IPV with somatostatin 0.16 μg/kg/min, control 215.9±7.4, n=3",213.1±8.6 mg of glucose/kg
same,blockade of somatostatin induced HDIR,"insulin sensitivity [4]; pilot studies, cyclosomatostatin 10 μg/kg/min",did not produce a full blockade
same,increase in glycemia following hemorrhage,"[1]; cyclosomatostatin 20 μg/kg/min-IPV, infused 67.2±4.8 minutes",19.9±2.0%
same,post hemorrhage RIST index,"insulin sensitivity [2]; Example 9: cyclosomatostatin 20 μg/kg/min-IPV continuous, started prior to hemorrhage, initial RIST 214.3±8.8, n=5",217.5±8.5 mg of glucose/kg
same,prevention of HDIR following hemorrhage,"insulin sensitivity [2]; Example 9: cyclosomatostatin 20 μg/kg/min-IPV prior to hemorrhage, n=5",prevented the occurrence of HDIR
CC(C)NCC(O)c1ccc(O)c(O)c1 (stereo not shown) [isoproterenol],heart rate (remained at original baseline level),beta receptors; isoproterenol 0.5 μg/kg/min-IV subsequent to propranolol 1.5 mg/kg-IPV,415.3±5.9 beats/min
same,increase in basal heart rate,beta receptors; isoproterenol alone,125.2±9.8 beats/min
Cc1ccc(N(CC2=NCCN2)c2cccc(O)c2)cc1 [phentolamine],increase in glycemia during hemorrhage,[1]; phentolamine 400 μg/kg/min-IPV prior to hemorrhage (18.2±4.2% without agents),1.1±0.9% and 1.1%
same,prevention of HDIR subsequent to hemorrhage,insulin sensitivity [2]; Example 7: phentolamine 400 μg/kg/min-IPV,unable to prevent HDIR
same,post hemorrhage RIST index,"insulin sensitivity [2]; Example 7: phentolamine 400 μg/kg/min-IPV prior to hemorrhage, control 213.1±8.4, n=7",145.4±9.2 mg of glucose/kg
same,decrease in insulin sensitivity (RIST index) between control and post hemorrhage RIST,"insulin sensitivity [2]; Example 7: phentolamine 400 μg/kg/min-IPV prior to hemorrhage, n=7",31.8%
same,decrease in insulin sensitivity (RIST index) between control and post hemorrhage RIST,"insulin sensitivity [2]; Example 7: phentolamine 400 μg/kg/min-IPV prior to hemorrhage, n=7, listed as Phentolamine",31.8% and 31.8±5.5%
